According to patent US6344458B1, “Piperazine ethylamide derivatives” (American Home Products Corporation, priority 1998, dated 2002):
Where a name gives a salt, the structure may show the parent alone.

Assays:
human 5HT1A receptor [1] = target: T1, human 5HT1A receptor (Homo sapiens, UniProt P08908); assay: 5-HT1A Receptor Binding Assay ([3H] 8-OH-DPAT displacement); settings: displacement of [3H] 8-OH-DPAT, CHO cells stably transfected with human 5HT1A receptor
T1 construct: expressed in transfected cells; host or cells: CHO cells (stably transfected)
T1 sequence (P08908 1-422): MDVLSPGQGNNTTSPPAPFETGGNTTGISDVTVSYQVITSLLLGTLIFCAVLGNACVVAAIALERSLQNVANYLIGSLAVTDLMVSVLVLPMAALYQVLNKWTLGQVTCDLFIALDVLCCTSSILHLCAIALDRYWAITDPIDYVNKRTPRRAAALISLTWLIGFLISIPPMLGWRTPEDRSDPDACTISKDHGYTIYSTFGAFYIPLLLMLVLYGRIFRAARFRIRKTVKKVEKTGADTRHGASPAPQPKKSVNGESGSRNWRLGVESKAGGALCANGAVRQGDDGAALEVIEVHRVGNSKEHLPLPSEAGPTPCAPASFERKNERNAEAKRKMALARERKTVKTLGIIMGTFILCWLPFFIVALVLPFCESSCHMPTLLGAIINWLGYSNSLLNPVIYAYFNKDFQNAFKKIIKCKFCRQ
Protocol: 5-HT1A Receptor Binding Assay
High affinity for the serotonin 5-HT1A receptor was established by testing a compound's ability to displace [^3H] 8-OH-DPAT binding in CHO cells stably transfected with the human 5HT1A receptor. Stably transfected CHO cells are grown in DMEM containing 10% heat inactivated FBS and non-essential amino acids. Cells are scraped off the plate, transferred to centrifuge tubes, and washed twice by centrifugation (2000 rpm for 10 min., 4° C.) in buffer (50 mM Tris pH 7.5). The resulting pellets are aliquoted and placed at −80° C. On the day of assay, the cells are thawed on ice and resuspended in buffer. The binding assay is performed in a 96 well microtiter plate in a total volume of 250 μL. Non-specific binding is determined in the presence of […] 5-HT, final ligand concentration is 1.5 nM. Following a 30 minute incubation at room temperature, the reaction is terminated by the addition of ice cold buffer and rapid filtration through a GF/B filter presoaked for 30 minutes in 0.5% PEI. Compounds are initially tested in a single point assay to determine percent inhibition at […], and Ki values are determined for the active compounds.

human 5HT1A receptor [2] = target: T1, human 5HT1A receptor; assay: 5-HT1A Receptor Intrinsic Activity Assay (reversal of forskolin-stimulated cAMP); assay type: cell-based; settings: for Emax: agonist activity, cAMP, forskolin-stimulated CHO cells with human 5-HT1A receptor
Protocol: 5-HT1A Receptor Intrinsic Activity Assay
The intrinsic activity of compounds of the present invention was established by testing the claimed compounds ability to reverse the stimulation of cyclic adenosinemonophosphate (cAMP) in CHO cells stably transfected with the human 5-HT1A receptor.
Stably transfected CHO cells were grown in DMEM containing 10% heat inactivated FBS and non-essential amino acids. The cells are plated at a density of […] per well in a 24 well plate and incubated for 2 days in a CO2 incubator. On the second day, the media is replaced with 0.5 mL treatment buffer (DMEM+25 mM HEPES, 5 mM theophylline, 10 μM pargyline) and incubated for 10 minutes at 37° C. Wells are treated with forskolin (1 μM final concentration) followed immediately by the test compound (0.1 and 1 μM for initial screen) and incubated for an additional 10 minutes at 37° C. The reaction is terminated by removal of the media and addition of 0.5 mL ice cold assay buffer (supplied in the RIA kit). Plates are stored at −20° C. prior to assessment of cAMP formation by RIA. EC50 values are determined for the active test compounds. Compounds shown to have no agonist activities (Emax=0%) are further analyzed for their ability to reverse agonist induced activity. In separate experiments, 6 concentrations of antagonist are preincubated for 20 minutes prior to the addition of agonist and forskolin. Cells are harvested as described above. The cAMP kit is supplied by Amersham and the RIA is performed as per kit instructions, and calculations of IC50 performed by GraphPad Prism.

Compound	melting point [°C]	Ki (human 5HT1A receptor [1]) [nM]	Emax (human 5HT1A receptor [2]) [%]	also measured
COc1ccccc1N1CCN(CCN(Cc2ccccc2)C(=O)C2CCCCC2)CC1 (as salt: fumarate) [Compound 2, Cyclohexanecarboxylic acid benzyl-{2-[4-(2-methoxy-phenyl)-piperazin-1-yl]-ethyl}-amide]	144 to 146	–	–	–
COc1ccccc1N1CCN(CCN(Cc2cccc3ccccc23)C(=O)C2CCCCC2)CC1 (as salt: fumarate) [Compound 4, Cyclohexanecarboxylic acid{2-[4-(2-methoxy-phenyl)-piperazin-1-yl]-ethyl}-naphthalen-1-ylmethl-amide]	204 to 206	–	–	–
COc1ccccc1N1CCN(CCN(CCCc2ccccc2)C(=O)C2CCCCC2)CC1 (as salt: fumarate) [Compound 8, Cyclohexanecarboxylic acid-{2-[4-(2-methoxy-phenyl)-piperazin-1-yl]-ethyl}-(3-phenyl-propyl)-amide]	103 to 105	–	–	–
COc1ccccc1N1CCN(CCNC(=O)c2ccccc2)CC1 (as salt: fumaric acid salt) [Compound 1, N-{2-[4-(2-Methoxy-phenyl)-piperazin-1-yl]-ethyl}-benzamide]	136 to 138	–	–	–
COc1ccccc1N1CCN(CCNC(=O)CCc2ccccc2)CC1 (as salt: fumaric acid salt) [Compound 7, N-{2-[4-(2-Methoxy-phenyl)-piperazin-1-yl]-ethyl}-3-phenyl-propionamide]	107 to 108	–	–	–
COc1ccccc1N1CCN(CCN(Cc2ccccc2)C(=O)C2CCCCC2)CC1 [Compound 2, Cyclohexanecarboxylic acid benzyl-{2-[4-(2-methoxy-phenyl)-piperazin-1-yl]-ethyl}-amide]	–	1.8	36	EC50 (human 5HT1A receptor [2]; agonist mode, reversal of forskolin-stimulated cAMP in CHO cells): 4.2 nM
COc1ccccc1N1CCN(CCN(Cc2cccc3ccccc23)C(=O)C2CCCCC2)CC1 [Compound 4, Cyclohexanecarboxylic acid{2-[4-(2-methoxy-phenyl)-piperazin-1-yl]-ethyl}-naphthalen-1-ylmethl-amide]	–	26	88	–
COc1ccccc1N1CCN(CCN(Cc2ccc3ccccc3c2)C(=O)C2CCCCC2)CC1 [Compound 6, Cyclohexanecarboxylic acid-{2-[4-(2-methoxy-phenyl)-piperazin-1-yl]-ethyl}-naphthalen-2-ylmethyl-amide]	–	1.2	0	IC50 (human 5HT1A receptor [2]; antagonist mode, reversal of agonist induced activity, preincubated 20 minutes before agonist and forskolin): 24 nM
COc1ccccc1N1CCN(CCN(CCCc2ccccc2)C(=O)C2CCCCC2)CC1 [Compound 8, Cyclohexanecarboxylic acid-{2-[4-(2-methoxy-phenyl)-piperazin-1-yl]-ethyl}-(3-phenyl-propyl)-amide]	–	20	77	–
